Results taken from ChEMBL document CHEMBL2029212, “Discovery of 1,4-disubstituted 3-cyano-2-pyridones: a new class of positive allosteric modulators of the metabotropic glutamate 2 receptor” (J Med Chem, 2012).
Calls of active or inactive are those of the source. No cut-off for these calls is given here.

What was measured:
[1] = Drug metabolism in human liver microsomes at 5 uM after 15 mins; format: ADME, Microsome; conditions: read-out: Drug metabolism
[2] = biological target: T1, Metabotropic glutamate receptor 2 (Homo sapiens, UniProt Q14416); test: Positive allosteric modulation of human mGlu2 receptor expressed in CHO cells assessed as glutamate-induced [35S]GTPgammaS binding after 30 mins by liquid scintillation counting relative to glutamate; format: functional, cell-based
Target sequence in this assay (Q14416 19-872 limits assumed): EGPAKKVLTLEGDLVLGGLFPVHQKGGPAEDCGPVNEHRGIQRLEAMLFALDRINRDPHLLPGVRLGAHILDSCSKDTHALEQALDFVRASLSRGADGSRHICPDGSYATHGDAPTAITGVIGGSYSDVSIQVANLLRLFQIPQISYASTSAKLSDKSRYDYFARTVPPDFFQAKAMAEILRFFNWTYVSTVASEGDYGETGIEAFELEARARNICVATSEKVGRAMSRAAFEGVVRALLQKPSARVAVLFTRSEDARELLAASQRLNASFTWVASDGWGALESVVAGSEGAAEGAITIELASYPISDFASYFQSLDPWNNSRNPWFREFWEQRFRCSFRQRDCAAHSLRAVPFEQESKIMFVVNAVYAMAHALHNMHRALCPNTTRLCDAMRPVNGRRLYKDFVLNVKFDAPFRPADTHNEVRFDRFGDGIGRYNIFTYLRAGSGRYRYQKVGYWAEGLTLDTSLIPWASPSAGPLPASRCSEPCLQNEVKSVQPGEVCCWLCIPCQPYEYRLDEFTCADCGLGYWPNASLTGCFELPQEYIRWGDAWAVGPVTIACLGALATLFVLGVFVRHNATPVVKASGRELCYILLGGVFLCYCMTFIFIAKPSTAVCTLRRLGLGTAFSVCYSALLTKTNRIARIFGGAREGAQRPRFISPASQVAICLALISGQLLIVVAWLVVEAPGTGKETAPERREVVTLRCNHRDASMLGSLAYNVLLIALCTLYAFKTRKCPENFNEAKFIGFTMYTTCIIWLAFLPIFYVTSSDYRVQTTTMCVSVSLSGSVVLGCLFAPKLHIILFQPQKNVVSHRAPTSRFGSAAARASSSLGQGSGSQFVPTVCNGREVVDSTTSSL

[3] = biological target: T1, Metabotropic glutamate receptor 2; test: Positive allosteric modulation of human mGlu2 receptor expressed in CHO cells assessed as glutamate-induced [35S]GTPgammaS binding after 30 mins by liquid scintillation counting; format: functional, cell-based
Target sequence in this assay (Q14416 whole entry): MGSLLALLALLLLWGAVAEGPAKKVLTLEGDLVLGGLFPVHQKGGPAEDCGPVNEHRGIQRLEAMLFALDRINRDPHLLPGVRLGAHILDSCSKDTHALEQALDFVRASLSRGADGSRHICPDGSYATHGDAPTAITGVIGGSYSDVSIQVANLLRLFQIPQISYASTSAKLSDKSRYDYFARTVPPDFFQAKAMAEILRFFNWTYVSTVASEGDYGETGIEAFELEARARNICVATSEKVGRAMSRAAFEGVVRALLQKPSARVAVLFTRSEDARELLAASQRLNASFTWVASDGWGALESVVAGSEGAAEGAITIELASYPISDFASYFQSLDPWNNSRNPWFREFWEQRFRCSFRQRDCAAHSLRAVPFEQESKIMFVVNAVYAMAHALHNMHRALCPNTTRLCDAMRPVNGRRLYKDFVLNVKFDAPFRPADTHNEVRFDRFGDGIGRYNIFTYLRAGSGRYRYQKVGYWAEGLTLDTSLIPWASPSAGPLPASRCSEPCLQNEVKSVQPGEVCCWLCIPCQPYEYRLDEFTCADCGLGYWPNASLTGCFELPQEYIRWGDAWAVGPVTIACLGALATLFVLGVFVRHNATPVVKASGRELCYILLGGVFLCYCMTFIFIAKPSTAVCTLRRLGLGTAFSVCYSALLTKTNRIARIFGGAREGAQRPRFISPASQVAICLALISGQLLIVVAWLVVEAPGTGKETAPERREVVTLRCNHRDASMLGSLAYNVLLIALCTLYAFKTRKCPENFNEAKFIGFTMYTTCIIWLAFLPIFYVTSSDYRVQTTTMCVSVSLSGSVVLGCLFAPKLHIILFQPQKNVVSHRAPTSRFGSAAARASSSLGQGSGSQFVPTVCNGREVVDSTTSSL

[4] = Drug metabolism in rat liver microsomes at 5 uM after 15 mins; format: ADME, Microsome; conditions: read-out: Drug metabolism
[5] = Drug level in Swiss mouse brain at 10 mg/kg, sc after 1 hr; format: ADME, organism-based; set-up: dose 10 mg/kg, route subcutaneous; conditions: read-out: Drug uptake
Rattus norvegicus [6] = test: Effect on sleep-awake cycle in Sprague-Dawley rat EEG model assessed as passive wake time at 10 mg/kg, sc by sleep-wake electroencephalogram assay; format: functional, organism-based; set-up: dose 10 mg/kg
Rattus norvegicus [7] = test: Inhibition of rapid eye movement sleep in Sprague-Dawley rat EEG model at 10 mg/kg, sc up to 2 hrs by sleep-wake electroencephalogram assay; format: functional, organism-based; set-up: dose 10 mg/kg
[8] = biological target: Metabotropic glutamate receptor 4 (Homo sapiens) (UniProt Q14833); test: Agonist activity at human mGluR4 expressed in L929 cells by [35S]GTPgammaS binding assay; format: functional, cell-based
Rattus norvegicus [9] = test: Effect on sleep-awake cycle in Sprague-Dawley rat EEG model assessed as intermediate state of sleep time at 10 mg/kg, sc by sleep-wake electroencephalogram assay; format: functional, organism-based; set-up: dose 10 mg/kg
[10] = biological target: Metabotropic glutamate receptor 1 (Homo sapiens) (UniProt Q13255); test: Agonist activity at human mGluR1 expressed in HEK293 cells by fluorescent Ca2+ assay; format: functional, cell-based
[11] = biological target: Metabotropic glutamate receptor 5 (Homo sapiens) (UniProt P41594); test: Antagonist activity at human mGluR5 expressed in HEK293 cells by fluorescent Ca2+ assay; format: functional, cell-based
[12] = Drug level in Swiss mouse brain at 10 mg/kg, sc after 1.5 hrs; format: ADME, organism-based; set-up: dose 10 mg/kg, route subcutaneous; conditions: read-out: Drug uptake
[13] = biological target: Metabotropic glutamate receptor 3 (Homo sapiens) (UniProt Q14832); test: Agonist activity at human mGluR3 expressed in HEK293 cells by fluorescent Ca2+ assay; format: functional, cell-based
[14] = biological target: Metabotropic glutamate receptor 5 (Homo sapiens) (UniProt P41594); test: Agonist activity at human mGluR5 expressed in HEK293 cells by fluorescent Ca2+ assay; format: functional, cell-based
Rattus norvegicus [15] = test: Effect on sleep-awake cycle in Sprague-Dawley rat EEG model assessed as deep sleep time at 10 mg/kg, sc by sleep-wake electroencephalogram assay; format: functional, organism-based; set-up: dose 10 mg/kg
Rattus norvegicus [16] = test: Effect on sleep-awake cycle in Sprague-Dawley rat EEG model assessed as light sleep time at 10 mg/kg, sc by sleep-wake electroencephalogram assay; format: functional, organism-based; set-up: dose 10 mg/kg
[17] = biological target: Metabotropic glutamate receptor 3 (Homo sapiens) (UniProt Q14832); test: Antagonist activity at human mGluR3 expressed in HEK293 cells by fluorescent Ca2+ assay; format: functional, cell-based
[18] = biological target: Metabotropic glutamate receptor 6 (Rattus norvegicus) (UniProt P35349); test: Antagonist activity at rat mGluR6 expressed in CHO cells by [35S]GTPgammaS binding assay; format: functional, cell-based
hERG = hERG (Homo sapiens, UniProt Q12809); test: Inhibition of human ERG expressed in HEK293 cells assessed as whole cell current at 3 uM after 5 mins by automated patch-clamp assay relative to control; format: cell-based; conditions: HEK293 cells expressing hERG
[19] = biological target: Metabotropic glutamate receptor 1 (Homo sapiens) (UniProt Q13255); test: Antagonist activity at human mGluR1 expressed in HEK293 cells by fluorescent Ca2+ assay; format: functional, cell-based
[20] = biological target: Metabotropic glutamate receptor 4 (Homo sapiens) (UniProt Q14833); test: Antagonist activity at human mGluR4 expressed in L929 cells by [35S]GTPgammaS binding assay; format: functional, cell-based
[21] = Ratio of drug level in brain to plasma in Swiss mouse at 10 mg/kg, sc after 1 hr; format: ADME, organism-based; set-up: dose 10 mg/kg, route subcutaneous; conditions: read-out: BPR
[22] = biological target: T1, Metabotropic glutamate receptor 2; test: Positive allosteric modulation of human mGlu2 receptor expressed in CHO cells assessed as fold shift in glutamate-induced [35S]GTPgammaS binding at 3 uM after 30 mins by liquid scintillation counting; format: functional, cell-based
Target sequence in this assay (Q14416 19-872 limits assumed): as the sequence (Q14416 19-872 limits assumed) above

Rattus norvegicus [23] = test: Effect on sleep-awake cycle in Sprague-Dawley rat EEG model assessed as increase of REM sleep onset latency at 10 mg/kg, sc by sleep-wake electroencephalogram assay; format: functional, organism-based; set-up: dose 10 mg/kg
Rattus norvegicus [24] = test: Effect on sleep-awake cycle in Sprague-Dawley rat EEG model assessed as active awake time at 10 mg/kg, sc by sleep-wake electroencephalogram assay; format: functional, organism-based; set-up: dose 10 mg/kg
[25] = biological target: Sodium-dependent noradrenaline transporter (Homo sapiens) (UniProt P23975); test: Binding affinity to norepinephrine transporter at 10 uM
[26] = biological target: Metabotropic glutamate receptor 6 (Rattus norvegicus) (UniProt P35349); test: Agonist activity at rat mGluR6 expressed in CHO cells by [35S]GTPgammaS binding assay; format: functional, cell-based
[27] = Drug level in Swiss mouse brain at 10 mg/kg, sc after 0.5 hrs; format: ADME, organism-based; set-up: dose 10 mg/kg, route subcutaneous; conditions: read-out: Drug uptake
[28] = Aqueous solubility of the compound in 20% HP-beta-CD buffer at pH 4; format: physicochemical

Sequence of hERG (Q12809 whole entry): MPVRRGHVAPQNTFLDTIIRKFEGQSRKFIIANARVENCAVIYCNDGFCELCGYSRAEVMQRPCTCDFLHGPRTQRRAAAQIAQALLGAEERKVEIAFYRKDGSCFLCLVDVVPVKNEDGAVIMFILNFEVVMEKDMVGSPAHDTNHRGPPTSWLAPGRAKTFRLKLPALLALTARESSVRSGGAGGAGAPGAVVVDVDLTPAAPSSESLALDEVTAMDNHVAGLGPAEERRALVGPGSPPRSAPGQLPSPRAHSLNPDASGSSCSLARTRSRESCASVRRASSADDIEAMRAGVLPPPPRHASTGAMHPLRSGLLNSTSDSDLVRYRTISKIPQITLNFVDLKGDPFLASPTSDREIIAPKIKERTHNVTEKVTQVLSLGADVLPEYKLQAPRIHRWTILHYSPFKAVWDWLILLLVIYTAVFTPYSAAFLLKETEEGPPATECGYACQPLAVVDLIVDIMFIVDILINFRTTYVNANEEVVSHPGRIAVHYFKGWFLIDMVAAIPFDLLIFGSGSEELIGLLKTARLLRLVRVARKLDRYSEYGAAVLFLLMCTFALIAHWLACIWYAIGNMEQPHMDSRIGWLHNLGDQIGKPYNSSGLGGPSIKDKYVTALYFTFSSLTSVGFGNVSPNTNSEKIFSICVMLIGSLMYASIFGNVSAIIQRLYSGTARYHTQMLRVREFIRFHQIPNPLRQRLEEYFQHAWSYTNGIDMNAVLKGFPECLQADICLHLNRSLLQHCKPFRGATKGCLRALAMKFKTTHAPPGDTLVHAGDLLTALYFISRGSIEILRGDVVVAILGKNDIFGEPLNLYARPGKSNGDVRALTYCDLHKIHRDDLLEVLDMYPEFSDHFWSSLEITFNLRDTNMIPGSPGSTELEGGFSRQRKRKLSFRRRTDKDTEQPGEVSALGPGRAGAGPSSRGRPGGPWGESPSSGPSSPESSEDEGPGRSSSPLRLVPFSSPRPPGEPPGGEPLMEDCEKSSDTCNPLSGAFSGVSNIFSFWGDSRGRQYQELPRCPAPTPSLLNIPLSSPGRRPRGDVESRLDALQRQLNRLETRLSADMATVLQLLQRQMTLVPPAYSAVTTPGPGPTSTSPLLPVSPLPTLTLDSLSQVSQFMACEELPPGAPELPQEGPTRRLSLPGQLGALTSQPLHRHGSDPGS
Sequence of Metabotropic glutamate receptor 5 (Homo sapiens) (P41594 21-1212 limits assumed): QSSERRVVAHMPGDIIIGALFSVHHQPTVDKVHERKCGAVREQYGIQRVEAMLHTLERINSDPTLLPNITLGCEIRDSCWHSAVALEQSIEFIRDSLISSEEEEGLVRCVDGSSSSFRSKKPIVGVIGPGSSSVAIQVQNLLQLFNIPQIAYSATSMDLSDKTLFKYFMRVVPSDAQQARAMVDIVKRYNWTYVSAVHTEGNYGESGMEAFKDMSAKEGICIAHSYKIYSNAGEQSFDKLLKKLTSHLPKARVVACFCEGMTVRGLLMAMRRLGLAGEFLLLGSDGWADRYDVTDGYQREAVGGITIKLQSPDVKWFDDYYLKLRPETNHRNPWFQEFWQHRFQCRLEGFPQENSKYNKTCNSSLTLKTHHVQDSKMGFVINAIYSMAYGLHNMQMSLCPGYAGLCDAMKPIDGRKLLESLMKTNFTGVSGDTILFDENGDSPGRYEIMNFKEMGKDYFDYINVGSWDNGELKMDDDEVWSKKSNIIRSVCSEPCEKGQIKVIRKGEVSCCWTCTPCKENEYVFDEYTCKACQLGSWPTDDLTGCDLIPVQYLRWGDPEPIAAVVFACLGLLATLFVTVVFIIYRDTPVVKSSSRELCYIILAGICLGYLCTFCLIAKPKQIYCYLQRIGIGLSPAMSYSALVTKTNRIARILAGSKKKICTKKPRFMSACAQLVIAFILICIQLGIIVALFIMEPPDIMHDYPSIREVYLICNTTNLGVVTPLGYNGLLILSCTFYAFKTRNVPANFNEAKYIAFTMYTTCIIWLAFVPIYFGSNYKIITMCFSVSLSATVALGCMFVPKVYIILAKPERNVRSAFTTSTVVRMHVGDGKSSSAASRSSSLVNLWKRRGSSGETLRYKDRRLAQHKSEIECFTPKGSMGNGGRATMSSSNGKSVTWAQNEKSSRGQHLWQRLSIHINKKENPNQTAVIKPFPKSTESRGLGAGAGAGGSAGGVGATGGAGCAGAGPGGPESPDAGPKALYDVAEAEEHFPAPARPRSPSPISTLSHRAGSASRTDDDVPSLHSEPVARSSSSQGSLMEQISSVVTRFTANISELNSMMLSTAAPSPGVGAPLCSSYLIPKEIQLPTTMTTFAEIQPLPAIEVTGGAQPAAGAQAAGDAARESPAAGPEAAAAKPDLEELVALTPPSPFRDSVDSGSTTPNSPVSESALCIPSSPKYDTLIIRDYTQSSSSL
Sequence of Metabotropic glutamate receptor 3 (Homo sapiens) (Q14832 23-879 limits assumed): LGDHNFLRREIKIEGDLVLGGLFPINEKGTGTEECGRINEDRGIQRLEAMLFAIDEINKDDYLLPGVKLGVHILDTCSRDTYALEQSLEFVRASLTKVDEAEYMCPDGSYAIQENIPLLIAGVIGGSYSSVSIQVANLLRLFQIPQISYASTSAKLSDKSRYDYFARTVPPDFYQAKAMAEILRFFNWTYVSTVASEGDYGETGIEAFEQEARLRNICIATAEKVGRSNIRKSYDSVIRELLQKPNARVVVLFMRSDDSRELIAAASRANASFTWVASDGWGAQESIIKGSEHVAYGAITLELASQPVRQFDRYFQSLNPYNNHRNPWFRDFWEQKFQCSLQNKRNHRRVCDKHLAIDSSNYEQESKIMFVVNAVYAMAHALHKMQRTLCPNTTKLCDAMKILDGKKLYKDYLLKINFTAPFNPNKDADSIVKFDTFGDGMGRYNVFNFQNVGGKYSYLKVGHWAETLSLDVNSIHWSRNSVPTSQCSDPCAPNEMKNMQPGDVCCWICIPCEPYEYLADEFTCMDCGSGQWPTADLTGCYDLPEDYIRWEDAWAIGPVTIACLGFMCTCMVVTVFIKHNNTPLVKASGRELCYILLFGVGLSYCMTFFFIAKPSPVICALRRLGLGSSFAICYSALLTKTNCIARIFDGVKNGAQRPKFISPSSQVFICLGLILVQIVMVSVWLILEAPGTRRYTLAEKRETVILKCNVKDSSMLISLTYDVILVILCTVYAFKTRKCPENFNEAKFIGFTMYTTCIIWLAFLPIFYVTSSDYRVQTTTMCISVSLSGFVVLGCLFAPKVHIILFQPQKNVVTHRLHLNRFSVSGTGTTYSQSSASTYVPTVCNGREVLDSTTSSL

## COc1ccc(-c2ccn(CCC(C)C)c(=O)c2C#N)cc1F
[1]
  metabolised at 0.25 h, 5 µM: 35%
[2]
  Emax: 160%
[3]
  EC50: 1170 nM

## CCCCn1ccc(-c2ccc(Oc3ccnc(C)c3)cc2Cl)c(C#N)c1=O
[1]
  metabolised at 0.25 h, 5 µM: 34%
[4]
  metabolised at 0.25 h, 5 µM: 47%
[2]
  Emax: 187%
[3]
  EC50: 933 nM

## CCCCn1ccc(-c2ccc(Oc3ccnc(C)c3)c(F)c2)c(C#N)c1=O
[5]
  concentration at 1 h: 1120 ng/g
[1]
  metabolised at 0.25 h, 5 µM: 33%
Rattus norvegicus [6]
  Activity: inactive
Rattus norvegicus [7]
  inhibition: Active
[8]
  Activity: inactive
Rattus norvegicus [9]
  Activity: inactive
[10]
  Activity: inactive
[11]
  Activity: inactive
[12]
  concentration at 1.5 h: 1020 ng/g
[13]
  Activity: inactive
[14]
  Activity: inactive
Rattus norvegicus [15]
  Activity: inactive
Rattus norvegicus [16]
  Activity: inactive
[17]
  Activity: inactive
[18]
  Activity: inactive
hERG
  inhibition at 5 min, 3 µM: 21%
[19]
  Activity: inactive
[20]
  Activity: inactive
[21]
  Kp at 1 h: 0.6
[22]
  fold change (FC): 11
[4]
  metabolised at 0.25 h, 5 µM: 50%
Rattus norvegicus [23]
  Activity: Active
[2]
  Emax: 233%
Rattus norvegicus [24]
  Activity: inactive
[25]
  Activity: > 50%
[26]
  Activity: inactive
[3]
  EC50: 316 nM
[27]
  concentration at 0.5 h: 1280 ng/g

## CC(C)CCn1ccc(-c2ccc(Oc3cccnc3)cc2)c(C#N)c1=O
[1]
  metabolised at 0.25 h, 5 µM: 21%
hERG
  inhibition at 5 min, 3 µM: 30%
[4]
  metabolised at 0.25 h, 5 µM: 29%
[28]
  solubility: ≥ 4000 µg/mL
[2]
  Emax: 231%
[3]
  EC50: 479 nM

## CC(C)CCn1ccc(-c2ccc(OCC3CC3)c(Cl)c2)c(C#N)c1=O
[1]
  metabolised at 0.25 h, 5 µM: 17%
[4]
  metabolised at 0.25 h, 5 µM: 72%
[2]
  Emax: 206%
[3]
  EC50: 110 nM

## CC(C)CCn1ccc(-c2ccc(Oc3ccccn3)cc2)c(C#N)c1=O
[1]
  metabolised at 0.25 h, 5 µM: 20%
hERG
  inhibition at 5 min, 3 µM: 33%
[4]
  metabolised at 0.25 h, 5 µM: 36%
[2]
  Emax: 249%
[3]
  EC50: 646 nM

## CC(C)CCn1ccc(-c2ccccc2)c(C#N)c1=O
[1]
  metabolised at 0.25 h, 5 µM: 36%
[4]
  metabolised at 0.25 h, 5 µM: 100%
[2]
  Emax: 117%
[3]
  EC50: 8510 nM

## CCCCn1ccc(-c2ccc(Oc3cccnc3C)cc2)c(C#N)c1=O
[5]
  concentration at 1 h: 294 ng/g
[1]
  metabolised at 0.25 h, 5 µM: 30%
[12]
  concentration at 1.5 h: 100 ng/g
hERG
  inhibition at 5 min, 3 µM: 31%
[21]
  Kp at 1 h: 0.3
[4]
  metabolised at 0.25 h, 5 µM: 50%
[2]
  Emax: 228%
[3]
  EC50: 347 nM
[27]
  concentration at 0.5 h: 822 ng/g

## CC(C)CCn1ccc(-c2ccc(N3CCOCC3)cc2)c(C#N)c1=O
[1]
  metabolised at 0.25 h, 5 µM: 38%
[4]
  metabolised at 0.25 h, 5 µM: 48%
[2]
  Emax: 236%
[3]
  EC50: 2040 nM

## Cc1ccc(Oc2ccc(-c3ccn(CCC(C)C)c(=O)c3C#N)cc2)c(C)n1
[1]
  metabolised at 0.25 h, 5 µM: 59%
[4]
  metabolised at 0.25 h, 5 µM: 49%
[2]
  Emax: 246%
[3]
  EC50: 100 nM

## Cc1cc(Oc2ccc(-c3ccn(CC4CC4)c(=O)c3C#N)cc2)ccn1
[1]
  metabolised at 0.25 h, 5 µM: 9%
[4]
  metabolised at 0.25 h, 5 µM: 19%
[2]
  Emax: 199%
[3]
  EC50: 832 nM

## COc1ccc(-c2ccn(CCC(C)C)c(=O)c2C#N)cc1OC
[1]
  metabolised at 0.25 h, 5 µM: 26%
[2]
  Emax: 242%
[3]
  EC50: 260 nM

## CCCCn1ccc(-c2ccc(Oc3ccc(C)nc3C)c(Cl)c2)c(C#N)c1=O
[5]
  concentration at 1 h: 830 ng/g
[1]
  metabolised at 0.25 h, 5 µM: 34%
[12]
  concentration at 1.5 h: 281 ng/g
hERG
  inhibition at 5 min, 3 µM: 80%
[21]
  Kp at 1 h: 0.4
[4]
  metabolised at 0.25 h, 5 µM: 50%
[2]
  Emax: 231%
[3]
  EC50: 30 nM
[27]
  concentration at 0.5 h: 1480 ng/g

## COc1cccc(-c2ccn(CCC(C)C)c(=O)c2C#N)c1
[1]
  metabolised at 0.25 h, 5 µM: 74%
[2]
  Emax: 176%

## CCCCn1ccc(-c2ccc(Oc3cccnc3C)c(Cl)c2)c(C#N)c1=O
[1]
  metabolised at 0.25 h, 5 µM: 29%
hERG
  inhibition at 5 min, 3 µM: 56%
[4]
  metabolised at 0.25 h, 5 µM: 60%
[2]
  Emax: 236%
[3]
  EC50: 100 nM

## CCCCn1ccc(-c2ccc(Oc3ccnc(C)c3)c(Cl)c2)c(C#N)c1=O
[1]
  metabolised at 0.25 h, 5 µM: 35%
[4]
  metabolised at 0.25 h, 5 µM: 51%
[2]
  Emax: 245%
[3]
  EC50: 166 nM

## CNc1ccc(-c2ccn(CCC(C)C)c(=O)c2C#N)cc1
[2]
  Emax: 186%
[3]
  EC50: 460 nM
